{
  "source": "patent US11648252B2",
  "about": "“Methotrexate for use as a medicament” (GF SERVICE S.R.L., priority 2018, dated 2023)",
  "key": {"[1]": {"tested_on": "rheumatoid arthritis", "conditions": "IV 50 mg/week for 2 to 20 weeks; 14 test persons; oral ulceration, GI symptoms, liver enzyme abnormalities; cited from earlier work"}, "[2]": {"tested_on": "patients with RA", "assay": "STEMETRA open-label pilot study, efficacy (DAS28) of step-down SC-MTX", "assay_type": "in vivo, human", "method": "(§1) The STEp-down MEthotrexate Therapy in Rheumatoid Arthritis (STEMETRA) was an open-label, monocentric, pilot study with the primary aim of assessing the safety and the tolerability of high dose subcutaneous (SC)-MTX in patients with RA. […] In view of the exploratory nature of this study, the expected enrolment was of 10 patients. Patients received a SC-MTX commercially available formulation (Reumaflex®, Alfasigma, Italy), dispensed as prefilled syringes of 25 mg, 20 mg, and 15 mg. For reaching the dosage of 50 mg at the beginning of the study, patients injected two SC-MTX 25 mg syringes consecutively.\nIn the present experimental examples, the Disease Activity Score based on 28 joints (DAS28) testing was carried out according to the protocols described in Fransen J. et al., “Rheumatoid Arthritis measures: Disease Activity Score (DAS), Disease Activity Score-28 (DAS28), Rapid Assessment of Disease Activity in Rheumatology (RADAR), and Rheumatoid Arthritis Disease Activity Index (RADAI)”, Arthritis Rheum 2003; 49, Suppl 9: pages 214 to 224, as well as described in van der Heijde D. M. et al., “Development of a disease activity score based on judgment in clinical practice by rheumatologists”, J Rheumatol. 1993 March, 20(3), pages 579 to 581.\n(§2) The protocol treatment schedule comprised administration of SC-MTX 50 mg/week for 4 consecutive weeks, followed by 25 mg/week for 4 weeks, and then 15 mg/week for 4 weeks. All patients received oral supplementation of folinic acid (leucovorin) 12 mg, twelve hours after the injection of SC-MTX. All patients had to be MTX-naïve; previous treatment with other conventional synthetic disease modifying anti-rheumatic drugs (cs)DMARDs was allowed only if they have already been withdrawn, for inefficacy or tolerability, before the baseline visit.\nEligible patients were≥18 years old affected by rheumatic arthritis (RA), according to the 2010 American College of […]/European league against rheumatism (ACR/EULAR) classification criteria^12, naïve to MTX and with an active disease, defined as a value of disease activity score (DAS)28≥3.2, with at least four tender joints and four swollen joints. Main exclusion criteria were: ongoing or previous treatment with bDMARDs, severe anaemia (defined as haemoglobin<[…]), severe thrombocytopenia (defined as platelets count<100,000/mm^3), severe leucopoenia or neutropenia (defined as white blood cells count<3,000 mm^3 or granulocytes count<1,000 mm^3), severe hepatic dysfunction [defined as aspartate aminotransferase (AST) or alanine aminotransferase (ALT)[…] the upper limit of normal(ULN)], renal function impairment (defined as creatinine clearance<40 mL/min), alcohol intake>70 g/week, pregnancy or breastfeeding, ongoing severe infections, previous infection with Hepatitis B (HBV) or Hepatitis C (HCV), positivity of Quantiferon or Mantoux test.\nDuring each visit, disease activity score based on 28 joints (DAS28) [with both erythrocytes sedimentation rate (ESR) and C-reactive protein (CRP)], simplified disease activity index (SDAI), clinical disease activity index (CDAI), and the Health Assessment Questionnaire (HAQ) were evaluated and calculated as efficacy measures."}, "[3]": {"tested_on": "refractory rheumatoid arthritis", "conditions": "IV 500 mg/m^2, 24 weeks, plus oral folinic acid 25 mg/m^2; 8 test persons; inefficacy, GI intolerance or sciatica; cited from earlier work"}, "[4]": {"tested_on": "active rheumatoid arthritis", "conditions": "intramuscular, 15 to 45 mg/m^2 within 22 weeks, plus 5 mg folinic acid per week; 27 test persons; recurrent chest infections or inefficacy; cited from earlier work"}, "[5]": {"tested_on": "rheumatoid arthritis", "conditions": "IV, initial 40 mg/m^2, final 26 mg/m^2; 10 test persons; infected plantar or severe nausea; cited from earlier work"}, "[6]": {"tested_on": "patients with RA", "assay": "STEMETRA open-label pilot study, safety and tolerability (adverse events, CTCAE v4.0)", "assay_type": "in vivo, human", "method": "as §1, §2\nIf a patient experience fatigue (with an intensity≥grade 2), he/she could receive a double dose of folinic acid: 12 mg at 12 and 24 hours after SC-MTX, respectively.\nAll the adverse events (AE) occurred during the study and follow-up periods were recorded according to the Common Terminology Criteria for Adverse Events (version 4.0)."}, "[7]": {"tested_on": "rheumatoid arthritis (RA)", "conditions": "treating rheumatoid arthritis; cited from earlier work"}, "[8]": {"tested_on": "patients", "conditions": "long-term data; cited from earlier work"}, "[9]": {"tested_on": "resistant rheumatoid arthritis", "conditions": "oral, 5 to 10 to 15 mg/m^2 within 16 weeks; 36 test persons; cited from earlier work"}, "[10]": {"conditions": "cited from earlier work"}, "[11]": {"conditions": "week 12, nine patients, step-down SC-MTX 50/25/15 mg/week, oral folinic acid 12 mg"}, "[12]": {"conditions": "nine patients, study and follow-up periods"}},
  "data": [
    {"smiles": "CN(Cc1cnc2nc(N)nc(N)c2n1)c1ccc(C(=O)N[C@@H](CCC(=O)O)C(=O)O)cc1", "note": "[MTX, (2S)-2-[[4-[(2,4-diaminopteridin-6-yl)methyl-methylamino]benzoyl]amino]-pentanedioic acid]", "values": [
      {"measurement": "test persons who had to reduce or discontinue the treatment due to toxicity", "setting": "[1]", "value": 35, "unit": "%"},
      {"measurement": "patients with a significant reduction of DAS28", "setting": "[2]; step-down SC-MTX regimen, discussion summary", "value": "~90", "unit": "%"},
      {"measurement": "patients showing a reduction in DAS28>1.2 from baseline", "setting": "[2]; week 12, 8 out of 9 patients, step-down SC-MTX 50/25/15 mg/week, oral folinic acid 12 mg", "value": 88.8, "unit": "%"},
      {"measurement": "patients who achieved DAS28 remission", "setting": "[2]; week 12, nine patients, SC-MTX 50 mg/week 4 weeks, then 25 mg/week 4 weeks, then 15 mg/week 4 weeks, oral folinic acid 12 mg", "value": 44.4, "unit": "%"},
      {"measurement": "patients showing moderate disease activity (DAS28)", "setting": "[2]; [11]", "value": 11.1, "unit": "%"},
      {"measurement": "patients who reached low disease activity (DAS28)", "setting": "[2]; [11]", "value": 22.2, "unit": "%"},
      {"measurement": "patients who still had high disease activity (DAS28)", "setting": "[2]; [11]", "value": 22.2, "unit": "%"},
      {"measurement": "test persons who withdrew the treatment", "setting": "[3]", "value": 37, "unit": "%"},
      {"measurement": "test persons who discontinued the treatment", "setting": "[4]", "value": 18.5, "unit": "%"},
      {"measurement": "test persons who did not complete the study", "setting": "[5]", "value": "Two"},
      {"measurement": "increase of alanine aminotransferase (ALT)", "setting": "[6]; Patient #6, week 4, resolved spontaneously, normal at week 8", "value": "< 2", "unit": "ULN"},
      {"measurement": "number of patients in whom AEs occurred", "setting": "[6]; [12]", "value": 4},
      {"measurement": "total number of AEs", "setting": "[6]; [12]", "value": 5},
      {"measurement": "severe AEs", "setting": "[6]; nine patients, whole study", "value": "none"},
      {"measurement": "number of patients with a mild (and transitory) increase in ALT", "setting": "[6]; week 4", "value": "one"},
      {"measurement": "AEs occurring in the first 4 weeks", "setting": "[6]; while taking SC-MTX 50 mg/week", "value": "none"},
      {"measurement": "efficacy rate as a monotherapy", "setting": "[7]", "value": "about 35%"},
      {"measurement": "patients who could experience liver enzymes elevation", "setting": "[8]", "value": "more than 10%"},
      {"measurement": "patients who had to stop MTX because of liver enzymes elevation", "setting": "[8]", "value": "less than 5%"},
      {"measurement": "test persons who discontinued the treatment due to high toxicity", "setting": "[9]", "value": 33, "unit": "%"},
      {"measurement": "dose over which absorption is known to plateau", "setting": "[10]; oral (OR-MTX)", "value": 15, "unit": "mg"},
      {"measurement": "dosage at which oral absorption starts to plateau", "setting": "[10]; oral", "value": 15, "unit": "mg/week"}
    ]}
  ]
}
